# Earlier results as cited in US8389574B2, “Method useful for the prevention of type 2 diabetes and its complications in pre-diabetic patients with insulin resistance” (Sigma-Tau Industrie Farmaceutiche Riunite S.p.A., priority 2007, dated 2013).
# Settings: DPP participants at high risk for IGT and type 2 diabetes; over 3 years
smiles,measurement,value
CN(C)C(=N)N=C(N)N [metformin],Reduction of risk of getting type 2 diabetes,31%
